In patent US20080275215A1, “Fluorescein-Based Compounds And Their Use For Peptide Synthesis” (COMMISSARIAT A L'ENERGIE ATOMIQUE, priority 2005, published 2008):

Columns and labels:
Format in all cases: physicochemical
[1] = Stability of 2'-ester toward alkaline hydrolysis; conditions: several hours in aqueous pH 9.8 buffer
Text: This is explained by the absence of ionic equilibrium in 3-O-alkyl fluorescein derivatives trapped in a tautomeric quinoid form by 2′-esterification. The stability of 2′-ester toward an alkaline hydrolysis was also checked by following the absorbance and fluorescence spectra.

[2] = UV-visible absorbance spectra; conditions: for absorbance maximum (longer wavelength) / absorbance maximum (shorter wavelength): 50 mM sodium tetraborate buffer pH 9.8; for molar extinction coefficient: at 456 nm
Experimental: (§1) Standard UV-visible and fluorescence spectra were recorded in 50 mM sodium tetraborate buffer pH 9.8 at 0.5-10 μM fluorescent compounds concentration. The fluorescence quantum yield of the fluorescent compounds was determined as described by Adamczyk et al. (previously cited) using alkaline solution of fluorescein as a reference (φ=0.92) (Lohse et al.; Adamczyk et al.; Klonis et al. and Martin et al., all previously cited).

[3] = Dye photostability (photobleaching) study under fluorescence microscope; conditions: after 6 min of irradiation
Experimental: Super-Teflon glass slides (VWR International) carrying 40 circular wells of 2 mm diameter, separated by 30 μm-thick Teflon coating were used in dye photostability study. A well was filled with 1 μl of 5 mM fluorescein compounds k) (dye 15) or 1) (dye 16) solution in 50 mM sodium tetraborate buffer pH 9.8 and was enclosed with a coverslip.
The entire well volume was irradiated under the microscope with standard “fluorescein” filters set. The intensity delivered by the source on the surface of the slide was measured with a COHERENT LaserCheck probe, and found to be ˜6 mW/cm^2 at 488 nm. Well images were recorded regularly with IMSTAR software and mean fluorescence intensity was calculated.
For comparison of the photostability of fluorophores under the condition of signal acquisition with fluorescent microscope, the sample was placed in a well on the surface of a glass slide that contains 40 circular wells of 2 mm diameter, separated by 30 μm-thick Teflon coating. The well was then enclosed with a coverslip producing a cylindrical sample chamber of ˜380 nl volume. […] The resulted light intensity at the chamber level was measured to be ˜6 mW/mm^2. At different times the fluorescence images of the well were taken and mean fluorescence intensity was calculated using IMSTAR software (Khomyakova et al., previously cited).

[4] = pH effect on fluorescence; conditions: range of pH 4.0-10.0; λexc 488 nm/λem 515 nm
Experimental: To measure the pH effect on fluorescence, 50 nM of fluorescent compounds k) (dye 15) or l) (dye 16) solution in 50 mM sodium tetraborate buffer (pH 9.8) was slowly titrated with HCl, aliquots were taken between pH 9.8 and 4, and fluorescence was measured at λexc 488 nm/λem 515 nm.

[5] = Fluorescence emission spectra and fluorescence quantum yield; conditions: for fluorescence emission λmax: 50 mM sodium tetraborate buffer pH 9.8; for fluorescence quantum yield φ: alkaline fluorescein as reference
Experimental: as §1

Structure (SMILES) | changes in absorbance and fluorescence spectra (2'-ester alkaline hydrolysis) [1] | absorbance maximum (longer wavelength) [2] [nm] | absorbance maximum (shorter wavelength) [2] [nm] | molar extinction coefficient [2] [L/mol/cm] | decrease in fluorescence [3] [%] | pH-dependence of fluorescence and quantum yield [4] | fluorescence emission λmax [5] [nm] | fluorescence quantum yield φ [5]
CCOC(=O)c1cc(NC(C)=O)ccc1-c1c2ccc(=O)cc-2oc2cc(OCC(=O)O)ccc12 [k), 5-acetylamino-2-(6-carboxymethoxy-3-oxo-3H-xanthen-9-yl)-benzoic acid ethyl ester] | No significant changes | 481 | 456 | 22000 | ~10 | virtually pH-independent | 520 | 0.19
CCOC(=O)c1ccc(NC(C)=O)cc1-c1c2ccc(=O)cc-2oc2cc(OCC(=O)O)ccc12 [l), 4-acetylamino-2-(6-carboxymethoxy-3-oxo-3H-xanthen-9-yl)-benzoic acid ethyl ester] | No significant changes | 481 | 456 | 23000 | ~10 | virtually pH-independent | 520 | 0.18
